Reference: US10799496B2, “Naphthylenyl compounds for long-acting injectable compositions and related methods” (priority 2018, dated 2020)

Columns and labels:
[1] = Whole blood stability assay; format: in vitro ADME; conditions: prodrug 50 nM, fresh pooled human whole blood, 37 degrees C.; read-out: t1/2 at 37 degrees C. in human whole blood
Method: Naltrexone prodrug stability was assessed using freshly collected whole blood (within 24-hr collection) from pooled human (n=3) donors. The incubation mixtures were prepared by spiking the prodrugs into pre-warmed (37 degrees C.) fresh whole blood to a final concentration of 50 nM. After gentle mixing, aliquots of incubation mixtures were immediately transferred into four different 96-deep well plates. One plate was used for each time point. The plates were incubated at 37 degrees C. at a shaking speed of 100 rpm. At time points 15, 30, 60 and 120 minutes, the reaction was quenched by addition of a mixture of water and acetonitrile containing the internal standard (naltrexone-D3). Time point 0 minutes was prepared separately by spiking the prodrugs into a quenched whole blood to obtain a final concentration of 50 nM. All samples were vortexed at a low speed for 15 min and centrifuged at 3900 rpm for 15 min. Supernatants were transferred into 96-well plates for LC-MS/MS analysis to monitor the depletion of the prodrugs and the formation of naltrexone.
The amount of remaining prodrug and released naltrexone for each sample was quantitated against the calibration curves prepared with the whole blood. The human whole blood was purchased from BioreclamationIVT (Westbury, N.Y., USA). Naltrexone-D3 was purchased from CERILLIANT® (Round Rock, Tex., USA). […] Where multiple runs have been completed, average values are reported.

[2] = Pharmacokinetic evaluation of the release of naltrexone from Compound 2 in rats following a single intramuscular injection; format: in vivo, Sprague-Dawley rats; conditions: for Compound 2 conc.: rat plasma
Method: Five male Sprague-Dawley rats were allowed to acclimate to the test facility for at least 2 days prior to study start. For dose administration of Compound 2, the rats were lightly anesthetized with isofluorane, the hind leg shaved and dosed intramuscularly with the formulation using a 21G needle. […] Serial whole blood samples were collected via sublingual route (˜150 μL) at 1, 8, and 24 hours post dose, and at 2, 4, 7, 10, 14, 17, 21, 24, 28, 35, 42, 49, 56, 63, 71, 78, 85, and 91 days post dose.
Blood samples were placed into K2EDTA blood collection tubes. After collection, blood samples were maintained chilled (on wet ice) and centrifuged (11,500 rpm for 2 minutes at 5 degrees C.) within 30 minutes to obtain plasma. Plasma was transferred into a single vial, 1.5 mL screw cap micro-centrifuge tube with inserts and stored at −80 degrees C. until analysis.
The formulation dosed was a crystalline suspension of Compound 2 (46 milligrams of Compound 2 dosed per animal), wherein the crystalline test article was characterized with a particle size distribution of Dv10=12.9 μm, Dv50=31.5 μm, and Dv90=63.1 μm (as measured via laser diffraction). The formulation was prepared the day before dosing. Details of the formulation dosed are described in Table D below.
Results of the above intramuscular rat study of Compound 2 are shown in Tables E and F. In particular, Table E reports the average blood plasma levels of naltrexone in rat (n=5) over 91 days following intramuscular administration.

## O=C(Cc1ccc2cc(CC(=O)Oc3ccc4c5c3O[C@H]3C(=O)CC[C@@]6(O)[C@@H](C4)N(CC4CC4)CC[C@]536)ccc2c1)Oc1ccc2c3c1O[C@H]1C(=O)CC[C@@]4(O)[C@@H](C2)N(CC2CC2)CC[C@]314 [Compound 2, bis((4R,4aS,7aR,12bS)-3-(cyclopropylmethyl)-4a-hydroxy-7-oxo-2,3,4,4a,5,6,7,7a-octahydro-1H-4,12-methanobenzofuro[3,2-e]isoquinolin-9-yl) 2,2′-(naphthalene-2,6-diyl)diacetate]
[1]
  half-life at 50 nM: 20.9 min
[2]; single i.m. dose of Compound 2, day 0.042 (1 hr), Rat 1
  Compound 2 conc.: 0.223 ng/mL
[2]; single i.m. dose of Compound 2, day 0.042 (1 hr), Rat 2
  Compound 2 conc.: 0.112 ng/mL
[2]; single i.m. dose of Compound 2, day 0.042 (1 hr), Rat 3
  Compound 2 conc.: <0.1 ng/mL
[2]; single i.m. dose of Compound 2, day 0.042 (1 hr), Rat 4
  Compound 2 conc.: 0.131 ng/mL
[2]; single i.m. dose of Compound 2, day 0.042 (1 hr), Rat 5
  Compound 2 conc.: 0.113 ng/mL
[2]; single i.m. dose of Compound 2, day 0.33 (8 hr), Rat 1
  Compound 2 conc.: <0.1 ng/mL
[2]; single i.m. dose of Compound 2, day 0.33 (8 hr), Rat 2
  Compound 2 conc.: <0.1 ng/mL
[2]; single i.m. dose of Compound 2, day 0.33 (8 hr), Rat 3
  Compound 2 conc.: <0.1 ng/mL
[2]; single i.m. dose of Compound 2, day 0.33 (8 hr), Rat 4
  Compound 2 conc.: <0.1 ng/mL
[2]; single i.m. dose of Compound 2, day 0.33 (8 hr), Rat 5
  Compound 2 conc.: <0.1 ng/mL
[2]; single i.m. dose of Compound 2, day 1, Rat 1
  Compound 2 conc.: <0.1 ng/mL
[2]; single i.m. dose of Compound 2, day 1, Rat 2
  Compound 2 conc.: <0.1 ng/mL
[2]; single i.m. dose of Compound 2, day 1, Rat 3
  Compound 2 conc.: <0.1 ng/mL
[2]; single i.m. dose of Compound 2, day 1, Rat 4
  Compound 2 conc.: <0.1 ng/mL
[2]; single i.m. dose of Compound 2, day 1, Rat 5
  Compound 2 conc.: <0.1 ng/mL
[2]; single i.m. dose of Compound 2, day 2, Rat 1
  Compound 2 conc.: <0.1 ng/mL
[2]; single i.m. dose of Compound 2, day 2, Rat 2
  Compound 2 conc.: <0.1 ng/mL
[2]; single i.m. dose of Compound 2, day 2, Rat 3
  Compound 2 conc.: <0.1 ng/mL
[2]; single i.m. dose of Compound 2, day 2, Rat 4
  Compound 2 conc.: <0.1 ng/mL
[2]; single i.m. dose of Compound 2, day 2, Rat 5
  Compound 2 conc.: <0.1 ng/mL
[2]; single i.m. dose of Compound 2, day 7, Rat 1
  Compound 2 conc.: <0.1 ng/mL
[2]; single i.m. dose of Compound 2, day 7, Rat 2
  Compound 2 conc.: <0.1 ng/mL
[2]; single i.m. dose of Compound 2, day 7, Rat 3
  Compound 2 conc.: 0.175 ng/mL
[2]; single i.m. dose of Compound 2, day 7, Rat 4
  Compound 2 conc.: <0.1 ng/mL
[2]; single i.m. dose of Compound 2, day 7, Rat 5
  Compound 2 conc.: <0.1 ng/mL
[2]; single i.m. dose of Compound 2, day 10, Rat 1
  Compound 2 conc.: 0.111 ng/mL
[2]; single i.m. dose of Compound 2, day 10, Rat 2
  Compound 2 conc.: <0.1 ng/mL
[2]; single i.m. dose of Compound 2, day 10, Rat 3
  Compound 2 conc.: 0.104 ng/mL
[2]; single i.m. dose of Compound 2, day 10, Rat 4
  Compound 2 conc.: 0.119 ng/mL
[2]; single i.m. dose of Compound 2, day 10, Rat 5
  Compound 2 conc.: <0.1 ng/mL
[2]; single i.m. dose of Compound 2, day 14, Rat 1
  Compound 2 conc.: 0.119 ng/mL
[2]; single i.m. dose of Compound 2, day 14, Rat 2
  Compound 2 conc.: 0.135 ng/mL
[2]; single i.m. dose of Compound 2, day 14, Rat 3
  Compound 2 conc.: <0.1 ng/mL
[2]; single i.m. dose of Compound 2, day 14, Rat 4
  Compound 2 conc.: 0.144 ng/mL
[2]; single i.m. dose of Compound 2, day 14, Rat 5
  Compound 2 conc.: 0.136 ng/mL
[2]; single i.m. dose of Compound 2, day 17, Rat 1
  Compound 2 conc.: <0.1 ng/mL
[2]; single i.m. dose of Compound 2, day 17, Rat 2
  Compound 2 conc.: <0.1 ng/mL
[2]; single i.m. dose of Compound 2, day 17, Rat 3
  Compound 2 conc.: <0.1 ng/mL
[2]; single i.m. dose of Compound 2, day 17, Rat 4
  Compound 2 conc.: <0.1 ng/mL
[2]; single i.m. dose of Compound 2, day 17, Rat 5
  Compound 2 conc.: <0.1 ng/mL
[2]; single i.m. dose of Compound 2, day 21, Rat 1
  Compound 2 conc.: <0.1 ng/mL
[2]; single i.m. dose of Compound 2, day 21, Rat 2
  Compound 2 conc.: <0.1 ng/mL
[2]; single i.m. dose of Compound 2, day 21, Rat 3
  Compound 2 conc.: <0.1 ng/mL
[2]; single i.m. dose of Compound 2, day 21, Rat 4
  Compound 2 conc.: <0.1 ng/mL
[2]; single i.m. dose of Compound 2, day 21, Rat 5
  Compound 2 conc.: 3.25 ng/mL
[2]; single i.m. dose of Compound 2, day 24, Rat 1
  Compound 2 conc.: 0.198 ng/mL
[2]; single i.m. dose of Compound 2, day 24, Rat 2
  Compound 2 conc.: 0.177 ng/mL
[2]; single i.m. dose of Compound 2, day 24, Rat 3
  Compound 2 conc.: 0.217 ng/mL
[2]; single i.m. dose of Compound 2, day 24, Rat 4
  Compound 2 conc.: 0.170 ng/mL
[2]; single i.m. dose of Compound 2, day 24, Rat 5
  Compound 2 conc.: 0.280 ng/mL
[2]; single i.m. dose of Compound 2, day 28, Rat 1
  Compound 2 conc.: 0.236 ng/mL
[2]; single i.m. dose of Compound 2, day 28, Rat 2
  Compound 2 conc.: 0.193 ng/mL
[2]; single i.m. dose of Compound 2, day 28, Rat 3
  Compound 2 conc.: 0.205 ng/mL
[2]; single i.m. dose of Compound 2, day 28, Rat 4
  Compound 2 conc.: 0.176 ng/mL
[2]; single i.m. dose of Compound 2, day 28, Rat 5
  Compound 2 conc.: 0.111 ng/mL
[2]; single i.m. dose of Compound 2, day 35, Rat 1
  Compound 2 conc.: 0.165 ng/mL
[2]; single i.m. dose of Compound 2, day 35, Rat 2
  Compound 2 conc.: 0.439 ng/mL
[2]; single i.m. dose of Compound 2, day 35, Rat 3
  Compound 2 conc.: 0.350 ng/mL
[2]; single i.m. dose of Compound 2, day 35, Rat 4
  Compound 2 conc.: 0.265 ng/mL
[2]; single i.m. dose of Compound 2, day 35, Rat 5
  Compound 2 conc.: 0.152 ng/mL
[2]; single i.m. dose of Compound 2, day 42, Rat 1
  Compound 2 conc.: 0.155 ng/mL
[2]; single i.m. dose of Compound 2, day 42, Rat 2
  Compound 2 conc.: 0.156 ng/mL
[2]; single i.m. dose of Compound 2, day 42, Rat 3
  Compound 2 conc.: 0.212 ng/mL
[2]; single i.m. dose of Compound 2, day 42, Rat 4
  Compound 2 conc.: 0.199 ng/mL
[2]; single i.m. dose of Compound 2, day 42, Rat 5
  Compound 2 conc.: 0.205 ng/mL
[2]; single i.m. dose of Compound 2, day 49, Rat 1
  Compound 2 conc.: <0.1 ng/mL
[2]; single i.m. dose of Compound 2, day 49, Rat 2
  Compound 2 conc.: <0.1 ng/mL
[2]; single i.m. dose of Compound 2, day 49, Rat 3
  Compound 2 conc.: <0.1 ng/mL
[2]; single i.m. dose of Compound 2, day 49, Rat 4
  Compound 2 conc.: <0.1 ng/mL
[2]; single i.m. dose of Compound 2, day 49, Rat 5
  Compound 2 conc.: <0.1 ng/mL
[2]; single i.m. dose of Compound 2, day 56, Rat 1
  Compound 2 conc.: 0.358 ng/mL
[2]; single i.m. dose of Compound 2, day 56, Rat 2
  Compound 2 conc.: 0.205 ng/mL
[2]; single i.m. dose of Compound 2, day 56, Rat 3
  Compound 2 conc.: 0.105 ng/mL
[2]; single i.m. dose of Compound 2, day 56, Rat 4
  Compound 2 conc.: 0.170 ng/mL
[2]; single i.m. dose of Compound 2, day 56, Rat 5
  Compound 2 conc.: 0.163 ng/mL
[2]; single i.m. dose of Compound 2, day 63, Rat 1
  Compound 2 conc.: <0.1 ng/mL
[2]; single i.m. dose of Compound 2, day 63, Rat 2
  Compound 2 conc.: <0.1 ng/mL
[2]; single i.m. dose of Compound 2, day 63, Rat 3
  Compound 2 conc.: <0.1 ng/mL
[2]; single i.m. dose of Compound 2, day 63, Rat 4
  Compound 2 conc.: 0.142 ng/mL
[2]; single i.m. dose of Compound 2, day 63, Rat 5
  Compound 2 conc.: <0.1 ng/mL
[2]; single i.m. dose of Compound 2, day 71, Rat 1
  Compound 2 conc.: <0.1 ng/mL
[2]; single i.m. dose of Compound 2, day 71, Rat 2
  Compound 2 conc.: <0.1 ng/mL
[2]; single i.m. dose of Compound 2, day 71, Rat 3
  Compound 2 conc.: <0.1 ng/mL
[2]; single i.m. dose of Compound 2, day 71, Rat 4
  Compound 2 conc.: <0.1 ng/mL
[2]; single i.m. dose of Compound 2, day 71, Rat 5
  Compound 2 conc.: <0.1 ng/mL
[2]; single i.m. dose of Compound 2, day 78, Rat 1
  Compound 2 conc.: <0.1 ng/mL
[2]; single i.m. dose of Compound 2, day 78, Rat 2
  Compound 2 conc.: <0.1 ng/mL
[2]; single i.m. dose of Compound 2, day 78, Rat 3
  Compound 2 conc.: <0.1 ng/mL
[2]; single i.m. dose of Compound 2, day 78, Rat 4
  Compound 2 conc.: <0.1 ng/mL
[2]; single i.m. dose of Compound 2, day 78, Rat 5
  Compound 2 conc.: <0.1 ng/mL
[2]; single i.m. dose of Compound 2, day 85, Rat 1
  Compound 2 conc.: <0.1 ng/mL
[2]; single i.m. dose of Compound 2, day 85, Rat 2
  Compound 2 conc.: <0.1 ng/mL
[2]; single i.m. dose of Compound 2, day 85, Rat 3
  Compound 2 conc.: <0.1 ng/mL
[2]; single i.m. dose of Compound 2, day 85, Rat 4
  Compound 2 conc.: <0.1 ng/mL
[2]; single i.m. dose of Compound 2, day 85, Rat 5
  Compound 2 conc.: <0.1 ng/mL
[2]; single i.m. dose of Compound 2, day 91, Rat 1
  Compound 2 conc.: <0.1 ng/mL
[2]; single i.m. dose of Compound 2, day 91, Rat 2
  Compound 2 conc.: <0.1 ng/mL
[2]; single i.m. dose of Compound 2, day 91, Rat 3
  Compound 2 conc.: <0.1 ng/mL
[2]; single i.m. dose of Compound 2, day 91, Rat 4
  Compound 2 conc.: <0.1 ng/mL
[2]; single i.m. dose of Compound 2, day 91, Rat 5
  Compound 2 conc.: <0.1 ng/mL
[2]; rat, single i.m. dose of Compound 2, over 91 days
  plasma concentrations of parent Compound 2 and the resultant intermediate: generally low to not measurable
[2]; rat, single i.m. dose, over 91 days
  conversion of Compound 2 in rats to naltrexone: efficient conversion
